Here are results for three compounds from patent US20240308956A1, “LIPOPHILIC LITHIUM SALTS FOR DIRECT DISSOLUTION IN ORGANIC SCINTILLATORS” (Lawrence Livermore National Security, LLC, priority 2022, published 2024).

The structures appear in SMILES notation. Bounds are passed on as bounds.

Data set [1] can be described thus: Long-term stability of loaded solutions to precipitation. The format is physicochemical. The protocol:
(§1) Majority of tested compositions were prepared with ˜0.1 wt. % of atomic ^6Li, although a possibility of higher concentrations was also tested for some efficient formulations. For liquid preparations, solid constituents weighed in vials or glass jars at ambient condition were vacuumed and transferred into the nitrogen-filled glove box, where liquid components (EJ-309, DIPN, Tx-100, and IBA) were added for dissolution. Solutions were left to stirred overnight to reach equilibrium, then transferred into the quartz cuvettes, sealed, and removed from the glovebox. Unless indicated otherwise, measurements were made in small cylindrical cuvettes of Ø2 cm×1 cm in dimensions. For approximate evaluation of the attenuation, solutions of interest were also prepared and measured at larger scale in 2″×2″ (Ø5.1 cm×5.1 cm) quartz cuvettes.

Data set [2] can be described thus: Solubility of lipophilic salts in liquids. The format is physicochemical. The protocol:
as §1

The conditions of data set [3]: without surfactant; cited from earlier work.

For the compound `CCCCC(CC)COC(=O)CC(C(=O)OCC(CC)CCCC)S(=O)(=O)[O-].[Li+]` (centres unmarked) [^6LiDOSS, lithium 1,4-bis(2-ethylhexoxy)-1,4-dioxobutane-2-sulfonate], the “^6Li concentration at which solutions are stable to solid precipitation” value in data set [1] (solution containing 0.5 wt. % of E404) is recorded as no more than 0.3 wt. % ^6Li. In addition, the “stability to long-term precipitation” value in data set [1] (solutions containing 0.2 wt. % of atomic lithium) is reported as “stable to long-term precipitation”. In addition, the “solubility of the compound in DIPN” value in data set [2] (DIPN, studies of long-term stability) is “about 20 wt. %”. In addition, the “solubility in organic fluids” value in data set [2] (organic fluids, of total scintillator) is on record as “about 50 wt. %”. Also, the “solubility of the compound” value in data set [2] (without any additional dyes) is recorded as “up to 40 wt. %”.
With `CC(C)CC(=O)[O-].[6Li+]` [^6LiIVA, reference compound], the stability of solutions entry in data set [1] (single dye solutions in 90:10 DIPN:IBA) is “highly stable”. Besides, the “precipitation or LO degradation on storage” value in data set [1] (single dye solutions in 95:5 DIPN:IBA, sealed samples, ~1 year of observations) was “no precipitation or LO degradation”.
Regarding `O=C([O-])c1cccc(-c2ccccc2)c1O.[6Li+]` [^6LiPSA], the solubility in aromatics entry in data set [3] is reported as “slightly soluble”.
